Test results: US20060188485A1, “Autologous self-tolerance inducing cells of monocytic origin and their use in pharmaceutical preparations” (priority 2003, published 2006)

Tested on: PHA-stimulated lymphocytes
Assay: Mixed lymphocyte culture with PHA-stimulated lymphocytes, 3[H]-thymidine incorporation
Format: cell-based, human
Conditions: 2 μmol 1-MT
Description: In order to clarify, whether the inhibitor of the enzyme indolamine-2,3-dioxygenase (IDO) 1-methyltryptophane (1-MT) influences the suppressor function of the TAIC generated in the “Mo” and “Mo+Ly” set ups (see Example 4), a variety of mixed lymphocyte cultures (MLC) with PHA (phytohaemagglutinine) stimulated T-cells in the presence and in the absence of 1-MT were established.
In these mixed lymphocyte cultures 50.000 lymphocytes with 2 μg PHA were transferred into the wells of a 96-well-plate, followed by a proliferation period over 144 hours (indicated as “PhaLy”). Lymphocytes only cultivated in medium without addition of PHA were run as a further control (indicated as “Ly”). […]
After 144 hours cultivation, all controls or co-cultures were further cultivated for 24 hours in the presence of ^3[H]-thymidine (“pulsed”) and thereafter the amount of radioactively labeled thymidine incorporated was determined as counts per minute (cpm), see FIG. 4. In this arrangement, the amount of the radio activity determined is a measure for the amount of labeled thymidine incorporated into the DNA, and therefore a measure for the proliferation rate of the lymphocytes. […]

`Cn1cc(C[C@H](N)C(=O)O)c2ccccc21` [1-MT, 1-methyltryptophane] was tested, and the “influence of 1-MT on the suppressor function of the TAIC” value was “increases the suppressor function of the TAIC synergistically” and the “influence of 1-MT on the suppressor function of the TAIC” value (listed as 1-methyltryptophane) was “no influence”.
